Measured values published in US10039761B2, “Co-crystals and pharmaceutical compositions comprising the same” (Vertex Pharmaceuticals Incorporated, priority 2013, dated 2018).
“Also recorded” adds a separate entry of the source.

Key:
[1] = Blood exposure in ST-02-0004 study; assay type: in vivo
Description: (§1) The anti-tumor activity of Compound (2) in combination with focused-beam IR and the standard of care agents, paclitaxel and carboplatin, was also evaluated in the ST 02 0004 model. Treatment with paclitaxel, carboplatin, and IR was administered once per week for three weeks alone or in combination with Compound (2). […] Further, the 50 and 25 mg/kg Compound (2), paclitaxel/carboplatin, IR combination groups were statistically different (P<0.05) from the paclitaxel/carboplatin, paclitaxel/carboplatin/50 mg/kg Compound (2), and paclitaxel/carboplatin/IR groups. Compound (2) blood exposures were 9.3 and 27 μg*h/mL for the 25 and 50 mg/kg Compound (2) bid groups, respectively.

[2] = test system: DU4475 breast cancer line; test: Doxorubicin or epirubicin combination in DU4475 cells; assay type: cell-based; settings: Doxorubicin or epirubicin in combination with Compound (2)
Description: The cell-based experiments and assays were performed with either molecule but not always with both. […] Analysis of the combination experiments was performed using two methods: the Bliss Additivity model and the Mixtures Blend method to determine the degree of synergy, additivity, or antagonism. In the Bliss method, a matrix of Bliss scores was generated for each cell line and treatment, and a sum of the Bliss values over the range of combination concentrations tested was calculated. […] Larger average Bliss values indicate greater confidence in reporting synergy, and smaller scores indicate greater confidence in reporting antagonism. In the Mixtures Blend method combinants were added in a range of optimal ratios using design of experiment (DOE) software (DX-8 from STAT-EASE); the cells were irradiated with 2 Gy as required. Synergy was determined using statistical analysis of the data (ANOVA) to indicate linear (additivity) or statistically significant (p<0.1) non-linear (antagonism or synergy) mixes of the combinants.

A549 = test: Combination with etoposide, viability (Bliss analysis); assay type: cell-based; settings: Compound (2) with etoposide; n = 1
Description: (§2) The cell-based experiments and assays were performed with either molecule but not always with both. Compounds (1) and (2) were generally very similar in those assays and experiments. Analysis of the combination experiments was performed using two methods: the Bliss Additivity model and the Mixtures Blend method to determine the degree of synergy, additivity, or antagonism. In the Bliss method, a matrix of Bliss scores was generated for each cell line and treatment, and a sum of the Bliss values over the range of combination concentrations tested was calculated. […] Larger average Bliss values indicate greater confidence in reporting synergy, and smaller scores indicate greater confidence in reporting antagonism. In the Mixtures Blend method combinants were added in a range of optimal ratios using design of experiment (DOE) software (DX-8 from STAT-EASE); the cells were irradiated with 2 Gy as required. Synergy was determined using statistical analysis of the data (ANOVA) to indicate linear (additivity) or statistically significant (p<0.1) non-linear (antagonism or synergy) mixes of the combinants.

ESO26 = test: as above; assay type: cell-based; settings: Compound (2) with etoposide; n = 3
Description: as §2

[3] = Body weight in ST-02-0004 xenograft studies; settings: in vivo, po, 25 mg/kg
Description: The in vivo activities of Compounds (1) and (2) were compared in combination with focused beam IR in a primary gastric cancer subcutaneous xenograft model. In the ST 02 0004 model, focused IR was administered on three consecutive days alone and in combination with Compound (1) or Compound (2). […] For all experimental groups, treatment was generally well tolerated as evidenced by maximum body weight losses ranging from −8.06% to −10.0% 10 to 48 days after treatment initiation
as §1

[4] = test system: OE-19 GEJ cell line xenograft; test: OE-19 GEJ cell line xenograft efficacy with whole body IR; assay type: in vivo
Description: The in vivo efficacies of Compounds (1) and (2) in combination with whole body IR were examined in the OD26749 primary NSCLC (non-small cell lung cancer) and the OE-19 GEJ cell line xenograft models. In these studies, Compounds (1) and (2) were formulated with 16% captisol/1% PVP/1% HPMC E5 pH2.
The OE-19 cell line xenograft model was used to evaluate the efficacy of Compounds (1) and (2) alone and in combination with IR. Two cycles of treatment were administered (Day 0 and Day 7) as performed in the OD26749 model above.
In Tables 14 and 15, for example, PO bid (0, 4 h) indicates Compound (2) is administered twice (bid) at time point 0 and then 4 hours after; IR (0.25 h) qdx3 indicates radiation is administered 15 minutes (0.25 h) after the administration of Compound (2) (0 h), and once a day for 3 days (qdx3); q7dx2 indicates once a week for two weeks; qod indicates every other day twice (e.g., Day 1 and Day 3); and paclitaxel q7dx3 (−0.25 h), carboplatin q7dx3 (−0.25 h) indicates administration of paclitaxel and carboplatin 15 minutes prior to the administration of Compound (2), followed by additional administration of Compound (2) after 4 hours after the first administration of Compound (2).

Colo205 = test: Combination with genotoxic agents, cell viability (Mixtures Blend); assay type: cell-based; settings: with Cisplatin and 5-FU
Description: (§3) The cell-based experiments and assays were performed with either molecule but not always with both. Compounds (1) and (2) were generally very similar in those assays and experiments. Analysis of the combination experiments was performed using two methods: the Bliss Additivity model and the Mixtures Blend method to determine the degree of synergy, additivity, or antagonism. In the Bliss method, a matrix of Bliss scores was generated for each cell line and treatment, and a sum of the Bliss values over the range of combination concentrations tested was calculated. […] Larger average Bliss values indicate greater confidence in reporting synergy, and smaller scores indicate greater confidence in reporting antagonism. In the Mixtures Blend method combinants were added in a range of optimal ratios using design of experiment (DOE) software (DX-8 from STAT-EASE); the cells were irradiated with 2 Gy as required. Synergy was determined using statistical analysis of the data (ANOVA) to indicate linear (additivity) or statistically significant (p<0.1) non-linear (antagonism or synergy) mixes of the combinants. The following SOC agents were tested in double combinations with Compound (1): etoposide (a topoisomerase inhibitor that induces DSBs), cisplatin (DNA cross-linker), carboplatin (DNA cross-linker), fluorouracil (5-FU, antimetabolite that inhibits thymidylate synthase), paclitaxel (mitotic inhibitor that binds to tubulin), cetuximab (EGFR monoclonal antibody), and radiation. […] These findings were confirmed using the Bliss Additivity model (Table 21). […] While there is not total agreement in the various lines tested, (as detailed in the other sections) the majority agree and the conclusions arrived at are common to each. […] The cancer cell lines in Table 19 indicate: ESO26-gastroesophageal junction cancer, OE19-gastroesophageal junction cancer, […]549-lung cancer, colo205-colon cancer, H460-lung cancer, H2009-lung cancer, FaDu-pharynx cancer, Miapaca2-pancreatic cancer, HFL1-human fetal lung fibroblast.

DMS-53 = test: as above; assay type: cell-based; settings: with Cisplatin and Etoposide
Description: as §3

OE19 = test: as above; assay type: cell-based
Description: as §3

## [2H]c1nc(C)nc([2H])c1-c1cc(NC[C@@H](C)c2cccc3c(C(=O)NC)ccnc23)ncn1 [Compound (2), (S)-N-methyl-8-(1-((2′-methyl-4′,6′-dideutero-[4,5′-bipyrimidin]-6-yl)amino)propan-2-yl)quinoline-4-carboxamide]
[1]; 25 mg/kg Compound (2) bid group
  blood exposure: 9300 ng·h/mL
[1]; 50 mg/kg Compound (2) bid group
  blood exposure: 27000 ng·h/mL
[2]
  Bliss analysis, combination effect: strong synergy (greater than 10 indicates strong synergy)
A549
  Average Bliss score: 27.3 (n = 1)
ESO26
  Average Bliss score: 43.2 ± 6.5 (n = 3)
[3]
  Max. body wt loss (%): −6.73%

## CNC(=O)c1ccnc2c([C@H](C)CNc3cc(-c4cnc(C)nc4)ncn3)cccc12 [Compound (1), (S)-N-methyl-8-(1-((2′-methyl-[4,5′-bipyrimidin]-6-yl)amino)propan-2-yl)quinoline-4-carboxamide]
[4]; Compound (1) in combination with 2 Gy whole body IR
  tumor growth: significantly inhibited tumor growth
[4]; PO 100 mg/kg bid (0, 4 h) qd7x2, 2 Gy IR qd7x2 ([…]) whole body
  % T/C (Day 18): 24.0%
[4]; PO 100 mg/kg bid (0, 4 h) qd7x 2, no IR
  % T/C (Day 18): 79.0%
Colo205
  Synergy or Antagonism, No Radiation: synergistic; also recorded: Synergy
  Synergy or Antagonism, Plus Radiation (2 Gy): Synergy, Plus
DMS-53
  Synergy or Antagonism, No Radiation: Strong Synergy
OE19; with 5-FU
  Synergy or Antagonism, No Radiation: Additivity
  Synergy or Antagonism, Plus Radiation (2 Gy): Synergy*, Plus
OE19; with Carboplatin
  Synergy or Antagonism, No Radiation: Antagonism
  Synergy or Antagonism, Plus Radiation (2 Gy): Synergy*, Plus
OE19; with Cisplatin and Paclitaxel
  Synergy or Antagonism, No Radiation: Mix
  Synergy or Antagonism, Plus Radiation (2 Gy): Synergy, Plus
